Format in all cases: cell-based
The target of assay [1] is T1, human muscarinic M3 receptor (Homo sapiens, UniProt P20309).
T1 construct: expressed in transfected cells
Kind of assay: Alphascreen Surefire phospho-ERK1/2 functional assay, M3. Conditions: for EC50: CHO cells stably expressing human M3, phospho-ERK1/2, read-out: pEC50 M3 (converted); for Emax: CHO, read-out: M3 % Emax cf. ACh. In a few lines:
(§1)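 The assay used ERK1/2 phosphorylation as a common downstream read-out of Gq/11 and Gi/o receptor activation. CHO cells expressing each human receptor were exposed to agonist for five minutes at 37 °C after overnight serum starvation. Potency (pEC50) and maximal effect (Emax) came from the AlphaScreen signal.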

The target of assay [2] is T2, human muscarinic M2 receptor (Homo sapiens, UniProt P08172).
T2 sequence (P08172 1-466): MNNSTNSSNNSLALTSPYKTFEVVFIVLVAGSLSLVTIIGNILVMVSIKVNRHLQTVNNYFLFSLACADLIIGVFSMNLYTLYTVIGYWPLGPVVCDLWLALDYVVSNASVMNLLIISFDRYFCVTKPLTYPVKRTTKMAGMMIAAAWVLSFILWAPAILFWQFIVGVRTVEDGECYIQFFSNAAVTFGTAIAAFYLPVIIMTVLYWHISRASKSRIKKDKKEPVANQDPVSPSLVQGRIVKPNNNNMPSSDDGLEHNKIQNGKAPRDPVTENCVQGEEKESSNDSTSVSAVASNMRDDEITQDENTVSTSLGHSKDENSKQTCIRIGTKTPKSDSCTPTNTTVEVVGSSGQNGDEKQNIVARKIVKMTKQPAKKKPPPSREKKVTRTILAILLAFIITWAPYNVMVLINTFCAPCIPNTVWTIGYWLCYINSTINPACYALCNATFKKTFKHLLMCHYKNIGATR
Kind of assay: Alphascreen Surefire phospho-ERK1/2 functional assay, M2. The following applies: for EC50: CHO cells stably expressing human M2, phospho-ERK1/2, read-out: pEC50 M2 (converted); for Emax: CHO, read-out: M2 % Emax cf. ACh. In a few lines: as §1

Assay [3] has as its target T3, human muscarinic M4 receptor (Homo sapiens, UniProt P08173).
T3 construct: expressed in transfected cells
T3 sequence (P08173 1-479): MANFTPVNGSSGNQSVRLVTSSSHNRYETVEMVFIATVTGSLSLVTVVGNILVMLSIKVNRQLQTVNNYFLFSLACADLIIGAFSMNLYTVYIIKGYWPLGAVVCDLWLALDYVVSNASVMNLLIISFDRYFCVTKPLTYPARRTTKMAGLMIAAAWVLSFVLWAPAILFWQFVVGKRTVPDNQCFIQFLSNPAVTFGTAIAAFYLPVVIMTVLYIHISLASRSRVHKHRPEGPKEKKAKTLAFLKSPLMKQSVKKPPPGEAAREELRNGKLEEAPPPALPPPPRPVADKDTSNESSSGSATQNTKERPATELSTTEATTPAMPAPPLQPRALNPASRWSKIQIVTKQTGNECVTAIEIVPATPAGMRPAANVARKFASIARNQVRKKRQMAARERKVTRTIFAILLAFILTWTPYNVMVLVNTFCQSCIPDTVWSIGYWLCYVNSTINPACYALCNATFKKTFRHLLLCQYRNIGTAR
Kind of assay: Alphascreen Surefire phospho-ERK1/2 functional assay, M4. Conditions: for M4 % Emax cf. ACh / EC50: CHO cells stably expressing human M4; for EC50: phospho-ERK1/2, read-out: pEC50 M4 (converted); for Emax: CHO. The method, boiled down:
as §1

The target of assay [4] is T4, human muscarinic M1 receptor (Homo sapiens, UniProt P11229).
T4 sequence (P11229 1-460): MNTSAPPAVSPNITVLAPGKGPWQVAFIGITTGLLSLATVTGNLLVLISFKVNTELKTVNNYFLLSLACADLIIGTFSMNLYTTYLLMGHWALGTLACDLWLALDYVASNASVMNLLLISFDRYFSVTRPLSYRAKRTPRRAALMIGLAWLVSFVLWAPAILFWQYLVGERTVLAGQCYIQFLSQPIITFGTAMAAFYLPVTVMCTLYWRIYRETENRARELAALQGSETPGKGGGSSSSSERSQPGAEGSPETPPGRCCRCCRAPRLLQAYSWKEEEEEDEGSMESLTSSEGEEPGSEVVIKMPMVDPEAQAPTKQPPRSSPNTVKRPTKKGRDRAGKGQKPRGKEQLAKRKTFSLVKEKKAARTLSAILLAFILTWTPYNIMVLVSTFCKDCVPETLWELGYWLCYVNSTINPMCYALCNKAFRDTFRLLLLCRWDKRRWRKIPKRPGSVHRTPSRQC
The assay is described as follows: Alphascreen Surefire phospho-ERK1/2 functional assay, M1. The following applies: for M1 % Emax cf. ACh / EC50: CHO cells stably expressing human M1; for EC50: phospho-ERK1/2, read-out: pEC50 M1 (converted); for Emax: CHO. The method, boiled down:
as §1

Where [5] appears, read: read-out: M4 % Emax cf. ACh, CHO cells stably expressing human M4, Emax relative to ACh.
[6] abbreviates: read-out: M1 % Emax cf. ACh, CHO cells stably expressing human M1, Emax relative to ACh.

Read-outs that look alike come from different tables or passages of the source.

T1 sequence (P20309 whole entry): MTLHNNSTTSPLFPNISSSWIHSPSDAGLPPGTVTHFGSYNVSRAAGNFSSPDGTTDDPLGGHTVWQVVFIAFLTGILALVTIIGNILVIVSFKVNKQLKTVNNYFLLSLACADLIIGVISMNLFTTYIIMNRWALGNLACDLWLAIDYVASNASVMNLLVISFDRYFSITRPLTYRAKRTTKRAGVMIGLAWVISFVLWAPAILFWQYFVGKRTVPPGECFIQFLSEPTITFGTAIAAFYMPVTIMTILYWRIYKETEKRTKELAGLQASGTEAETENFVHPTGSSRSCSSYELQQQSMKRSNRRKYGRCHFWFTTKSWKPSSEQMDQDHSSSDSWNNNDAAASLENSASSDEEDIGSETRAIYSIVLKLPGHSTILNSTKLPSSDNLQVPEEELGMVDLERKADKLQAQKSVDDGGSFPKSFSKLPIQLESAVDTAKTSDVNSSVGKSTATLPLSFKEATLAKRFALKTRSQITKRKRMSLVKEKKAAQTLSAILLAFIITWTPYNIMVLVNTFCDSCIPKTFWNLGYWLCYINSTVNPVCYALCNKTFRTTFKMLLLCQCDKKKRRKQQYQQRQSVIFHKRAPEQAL

In the case of `CCOC(=O)N1CCCN(C2CCC3(CC2)C(=O)Nc2cc(C)ccc23)CC1` (single isomer, unassigned) [4-6 isomer 2], the EC50 in assay [1] was > 15800 nM; in assay [2] it was > 15800 nM; in assay [3], 75.9 nM; in assay [4] it was 36.3 nM. Besides, the Emax in assay [1] amounted to 17%; in assay [2] it was 39%. Besides, the “M4 % Emax cf. ACh” value in assay [3] (Emax relative to ACh) was 116%. Also, in assay [4] (Emax relative to ACh), the “M1 % Emax cf. ACh” value is on record as 130%.

Turning to `CCOC(=O)N1CCCN(C2CCC3(CC2)C(=O)Nc2ccc(C)cc23)CC1` (single isomer, unassigned) [4-7 isomer 1], the EC50 in assay [1] is > 20000 nM; in assay [2], > 20000 nM; in assay [3], 5370 nM; in assay [4], 44.7 nM. The Emax was 20% in assay [1], 16% in assay [2], 100% in assay [3] (setting [5]) and 115% in assay [4] (setting [6]).

In the case of `CCOC(=O)N1CCCN(C2CCC3(CC2)C(=O)Nc2cccc(C)c23)CC1` (single isomer, unassigned) [4-8 isomer 2], the EC50 in assay [1] is > 20000 nM; in assay [2] it was > 20000 nM; in assay [3] it was 97.7 nM; in assay [4], 204 nM. Besides, the Emax in assay [1] was 9%; in assay [2], 17%. Moreover, the “M4 % Emax cf. ACh” value in assay [3] (Emax relative to ACh) turned out to be 95%. Also, in assay [4] (Emax relative to ACh), the “M1 % Emax cf. ACh” value came to 97%.

For the compound `CCOC(=O)N1CCCN(C2CCC3(CC2)C(=O)Nc2cc(OC)ccc23)CC1` (single isomer, unassigned) [4-11 isomer 2], the EC50 in assay [1] is > 20000 nM; in assay [2], > 20000 nM; in assay [3] it was 309 nM; in assay [4], 132 nM. Moreover, the maximum response (Emax) in assay [1] was determined as 2%; in assay [2] it was 9%; in assay [3] (setting [5]), 55%; in assay [4] (setting [6]) it was 107%.

As to `CCOC(=O)N1CCCN(C2CCC3(CC2)C(=O)Nc2ccc(OC)cc23)CC1` (single isomer, unassigned) [4-12 isomer 1], the EC50 in assay [1] was > 20000 nM; in assay [2], > 20000 nM; in assay [3] it was > 20000 nM; in assay [4], 89.1 nM. The Emax in assay [1] turned out to be 34%; in assay [2], 3%; in assay [3] (setting [5]), 10%; in assay [4] (setting [6]) it was 107%.

Take `CCOC(=O)N1CCCN(C2CCC(c3nc(CC)c(C)[nH]3)CC2)CC1` (single isomer, unassigned) [5-1 Isomer 2]: the EC50 in assay [1] was > 20000 nM; in assay [2] it was > 20000 nM; in assay [3] it was 513 nM; in assay [4], 66.1 nM. The Emax in assay [1] turned out to be 7%; in assay [2], 8%; in assay [3] (setting [5]), 26%; in assay [4] (setting [6]) it was 115%.

Turning to `CCOC(=O)NCC1CCN(C2CCC(C#N)(c3ccccc3)CC2)CC1` (single isomer, unassigned) [6-2-Isomer 2], the EC50 was > 20000 nM in assay [1], > 20000 nM in assay [2], 53.7 nM in assay [3] and 58.9 nM in assay [4]. Moreover, the Emax in assay [1] came out at 12%; in assay [2] it was 0%; in assay [3] (setting [5]), 49%; in assay [4] (setting [6]) it was 129%.

`CCOC(=O)NCC1CCN(C2CCC3(CC2)C(=O)Nc2ccccc23)CC1` (single isomer, unassigned) [7-2 isomer 1]: the EC50 in assay [1] was > 20000 nM; in assay [2], > 20000 nM; in assay [3], 170 nM; in assay [4] it was 75.9 nM. In addition, the maximum response (Emax) was 3% in assay [1] and 37% in assay [2]. Further, the “M4 % Emax cf. ACh” value in assay [3] (Emax relative to ACh) worked out at 32%. Further, in assay [4] (Emax relative to ACh), the “M1 % Emax cf. ACh” value is given as 122%.

As for `CCOC(=O)N1CC2(CCN(C3CCC(C#N)(c4ccccc4)CC3)CC2)C1` (single isomer, unassigned) [11-1 Isomer 2], the EC50 in assay [1] is > 20000 nM; in assay [2], > 20000 nM; in assay [3], > 20000 nM; in assay [4], 275 nM. For the same compound, the Emax in assay [1] amounted to 3%; in assay [2], 1%; in assay [3] (setting [5]) it was 19%; in assay [4] (setting [6]) it was 105%.

On to `CCOC(=O)N1CCC2(CCN(C3CCC4(CC3)C(=O)Nc3ccccc34)CC2)C1` (single isomer, unassigned) [12-1 isomer 1], for which the EC50 in assay [1] is > 20000 nM; in assay [2], > 20000 nM; in assay [3], 4.79 nM; in assay [4], 13.8 nM. Moreover, the Emax in assay [1] was 1%; in assay [2], 18%; in assay [3] (setting [5]), 82%; in assay [4] (setting [6]), 109%.

For `CCOC(=O)N1CCC2(CCN(C3CCC4(CC3)C(=O)N(C(=O)OCC)c3ccccc34)CC2)C1` (single isomer, unassigned) [12-2 isomer 1], the EC50 in assay [1] is > 20000 nM; in assay [2], > 20000 nM; in assay [3] it was 10.7 nM; in assay [4], 25.7 nM. The Emax in assay [1] was 0%; in assay [2], 27%; in assay [3] (setting [5]) it was 48%; in assay [4] (setting [6]), 65%.

In the case of `CCOC(=O)N1CCC2(CCN(C3CCC(C#N)(c4ccccc4)CC3)CC2)C1` (single isomer, unassigned) [13-1 Isomer 2], the EC50 in assay [1] was > 20000 nM; in assay [2], > 20000 nM; in assay [3] it was 0.145 nM; in assay [4] it was 0.447 nM. In addition, the Emax in assay [1] amounted to 7%; in assay [2], 21%; in assay [3] (read-out: M4 % Emax cf. ACh), 121%; in assay [4] (read-out: M1 % Emax cf. ACh), 121%.

Take `CCOC(=O)N1CCC2CN(C3CCC(C#N)(c4ccccc4)CC3)CC21` (single isomer, unassigned) [15-1 Isomer 2]: the EC50 in assay [1] was > 20000 nM; in assay [2], > 20000 nM; in assay [3], 145 nM; in assay [4], 155 nM. Also, the Emax in assay [1] is 6%; in assay [2] it was 14%; in assay [3] (setting [5]), 21%; in assay [4] (setting [6]), 117%.

For `CCOC(=O)N1CC2CN(C3CCC(C#N)(c4ccccc4)CC3)CCC21` (single isomer, unassigned) [17-1 Isomer 2], the EC50 was > 20000 nM in assay [1], > 20000 nM in assay [2], 251 nM in assay [3] and 97.7 nM in assay [4]. Also, the Emax was 9% in assay [1], 9% in assay [2], 61% in assay [3] (setting [5]) and 111% in assay [4] (setting [6]).

As to `Cc1noc([C@H]2CC[C@@H](NC3CCC(C#N)(c4ccccn4)CC3)C2)n1` (single isomer, unassigned) [19-1 Isomer 2], the EC50 in assay [1] is > 20000 nM; in assay [2] it was > 20000 nM; in assay [3], 224 nM; in assay [4], 1740 nM. The Emax was 8% in assay [1], 21% in assay [2], 83% in assay [3] (setting [5]) and 45% in assay [4] (setting [6]).
